Columns and labels:
Assay type in all cases: cell-based
Details in all cases: 7 days of treatment
[1] = system: HBG mRNA in human CD34+ HSC; assay: HBG mRNA level in human CD34+ HSC (qRT-PCR)
Method: (§1) Human cord blood CD34+ hematopoietic stem cells (HSC) were first expanded in the expansion medium (StemSpan SFEM II+StemSpan CD34 Expansion Supplement) to achieve the desired number of cells, and then differentiated in differentiation medium (StemSpan SFEM II+StemSpan Erythroid Expansion Supplement (100×)) for three days without drug treatment. Various concentrations of Cpd. 73 were added on the fourth day of differentiation and further incubated with the cells for another 7 days. 33 mM Hydroxyurea was used as the control.
After 7 days of treatment, the cells were collected. Total RNA was isolated using Trizol LS reagent (Invitrogen-10296028) and 1 μg RNA of each sample was reverse transcribed into cDNA using High Capacity cDNA Reverse Transcription Kit (AB (Applied Biosystems)-4374966), according to the manufacturer's instructions. Quantitative RT-PCR (qRT-PCR) was performed using an Applied Biosystems QuantStudio 7 Flex system with the primer pairs shown as below: hHBG-mRNA-F1 (5′-[…]-3′) and hHBG-mRNA-R1 (5′-TCACTCAGCTGGGCAAAGG-3′). […] The HBG mRNA level were 1.09-, 2.49-, 7.84-, 9.69- and 12.2-folds of the vehicle group when the cells were treated with 0.01 μM, 0.03 μM, 0.1 μM, 0.3 μM and 1.0 μM Cpd. 73 respectively. […] 73 which increased HBG mRNA by 12.2 folds (p<0.0001, vs. vehicle). The HBG mRNA level of cells treated with 33 mM Hydroxyurea, an approved medicine for SCD, was 6.46-folds of the vehicle group.

[2] = system: HbF in human CD34+ HSC; assay: HbF concentration in human CD34+ HSC by ELISA; set-up: HbF concentration, folds of the vehicle group: dose or concentration left out as unconfirmed
Method: as §1
After 7 days of treatment, the cells were collected and lysed. The concentration of HbF in the cell lysate was determined using a Human Fetal Hemoglobin (HBF) ELISA Kit (MyBioSource, MBS2024474). […] The cellular HbF concentration were 1.27-, 1.39-, 1.52-, 1.58- and 1.69-folds of the vehicle group when the cells were treated with 0.01 μM, 0.03 μM, 0.1 μM, 0.3 μM and 1.0 μM Cpd. 73 respectively. […] 73 where the cellular HbF concentration was 1.69-folds of the vehicle group (p<0.01). HbF concentration of cells treated with 33 mM Hydroxyurea was 1.18-folds of the vehicle group. Clinically, small increases of HbF concentration (1-5%) have the potential to provide clinical benefits to all SCD patients.

[3] = system: HbF+ cells in human CD34+ HSC; assay: HbF+ cell % in human CD34+ HSC by FACS
Method: as §1
After 7 days of treatment, the cells were collected and stained with PE-conjugated Mouse Anti-Human Fetal Hemoglobin (BD, 560041). The percentage of HbF+ cells were quantified by FACS. […] 73 respectively. […] 73 where HbF+ cell % was 2.58-folds of the vehicle group (p<0.0001). The % of HbF+ cells was 1.82-folds of the vehicle group when the cells were treated with 33 mM Hydroxyurea.

SMILES: NC(=O)NO [Hydroxyurea, reference compound]
- HBG mRNA level, folds of the vehicle group [1]: 6.46 folds
- HbF concentration, folds of the vehicle group [2]: 1.18 folds
- % of HbF+ cells, folds of the vehicle group [3]: 1.82 folds
